Measured values from US20240294533A1, “2-(HET)ARYL-SUBSTITUTED CONDENSED HETEROCYCLE DERIVATIVES AS PEST CONTROL AGENTS” (Bayer Aktiengesellschaft, priority 2021, published 2024).

Columns and labels:
Format in all cases: in vivo
Nezara viridula = Nezara viridula spray test (infected barley plants sprayed); settings: 100 g ai/ha, after 4 days
From the text: Nezara viridula—Spray Test Solvent: 52.5 parts by weight of acetone • 7 parts by weight of dimethylformamide Emulsifier: alkylaryl polyglycol ether An appropriate active ingredient formulation is produced by dissolving 1 part by weight of active ingredient with the stated parts by weight of solvent and making the solution up to the desired concentration with water containing an emulsifier concentration of 1000 ppm. Further test concentrations are produced by diluting the formulation with emulsifier-containing water. If the addition of ammonium salts or/and penetrants is required, these are each added in a concentration of 1000 ppm to the formulation solution. Barley plants (Hordeum vulgare) infected with larvae of the Southern green shield bug (Nezara viridula) are sprayed with an active ingredient formulation of the desired concentration. After 4 days, efficacy in % is determined. 100% means that all of the shield bugs have been killed; 0% means that none of the shield bugs have been killed.

Myzus persicae = Myzus persicae oral test; settings: 4 ppm, after 5 days
Procedure: Myzus persicae—Oral Test Solvent: 100 parts by weight of acetone An appropriate active ingredient formulation is produced by dissolving 1 part by weight of active ingredient with the specified parts by weight of solvent and making the solution up to the desired concentration with water. 50 μl of the active ingredient formulation is transferred into microtitre plates and made up to a final volume of 200 μl with 150 μl of IPL41 insect medium (33%+15% sugar). Subsequently, the plates are sealed with parafilm, which a mixed population of green peach aphids (Myzus persicae) within a second microtitre plate is able to puncture and imbibe the solution. After 5 days, efficacy in % is determined. 100% means that all the aphids have been killed; 0% means that no aphids have been killed.

Lucilia cuprina = Lucilia cuprina test; settings: 100 ppm, L1 larvae, after 2 days
Procedure: Lucilia cuprina Test Solvent: dimethyl sulfoxide An appropriate active ingredient formulation is produced by mixing 10 mg of active ingredient with 0.5 ml of dimethyl sulfoxide and diluting the concentrate with water to the desired concentration. About 20 L1 larvae of the Australian sheep blowfly (Lucilia cuprina) are transferred into a test vessel containing minced horsemeat and the active ingredient formulation of the desired concentration. After 2 days, the kill rate in % is determined relative to the untreated control. 100% means that all the larvae have been killed; 0% means that no larvae have been killed.

CCS(=O)(=O)c1ccc(-n2ncn(-c3ccc(Cl)cc3)c2=O)nc1-c1nc2cc(C(F)(F)C(F)(F)F)cnc2n1C [Example I-23]
100%: efficacy (Nezara viridula) | efficacy (Myzus persicae) | efficacy (kill rate) (Lucilia cuprina)
